Measurements from publication PMC8539310, “In Vitro Anti-HIV-1 Reverse Transcriptase and Integrase Properties of Punica granatum L. Leaves, Bark, and Peel Extracts and Their Main Compounds” (Plants, 2021).

What was measured:
[1] = target: T1, HIV-1 IN in the presence of LEDGF/p75 (Human immunodeficiency virus type 1 group M subtype B, UniProt P04585); experiment: HTRF IN LEDGF-dependent assay; type: biochemical; conditions: for remaining activity at 100 µM: read-out: Percentage of control IN LEDGF-dependent activity in the presence of the indicated drug concentration; for Inhibition of HIV-1 IN LEDGF-dependent activity (in words): highest tested concentration; for IC50: pure compounds, in the presence of LEDGF, read-out: HIV-1 Integrase LEDGF-Dependent IC50
T1 construct: Recombinant IN and LEDGF/p75 proteins were expressed and purified; made in house
Experimental: Recombinant IN and LEDGF/p75 proteins were expressed and purified as described by Esposito et al. 2020 [67].
The IN activity was measured in the presence of LEDGF/p75 cellular cofactor in an HTRF assay. Data analysis of the assay results was performed using GraphPad Prism 9.

[2] = target: T2, HIV-1 RT-associated RNase H (Human immunodeficiency virus type 1 group M subtype B, UniProt P04585); experiment: RNase H polymerase independent cleavage assay; type: biochemical; conditions: for remaining activity at 100 µM: read-out: Percentage of control RNase H activity in the presence of the indicated drug concentration
T2 construct: HIV-1 group M subtype B heterodimeric RT; made in house
Experimental: HIV-1 group M subtype B heterodimeric RT was expressed and purified essentially as previously described.
HIV RT-associated RNase H activity was measured as described by Corona et al. 2016 [68] using the RNase H inhibitor RDS1759 as a control. Data analysis of the assay results was performed using GraphPad Prism 9.

[3] = test system: HIV-1 RT, wild-type and mutant; set-up: method as in PMID 23821410; conditions: wild-type and mutant RTs; cited from earlier work
[4] = test system: HIV RT DNA polymerase activity; set-up: method as in Nutan et al. 2013 51; conditions: ref Nutan et al. 2013 51; cited from earlier work
target cells = conditions: cited from earlier work
HIV-1 protease = conditions: cited from earlier work
X4-tropic HIV-1 = test system: X4-tropic HIV-1; set-up: method as in PMID 29480632; conditions: target cells; cited from earlier work
[5] = test system: HIV-1 infection in Jurkat cells; set-up: method as in PMID 22140483; conditions: cited from earlier work
H9 lymphocytes = test system: H9 lymphocytes; set-up: method as in PMID 1698933; conditions: cited from earlier work
HIV-1 in H9 lymphocytes = test system: HIV-1 in H9 lymphocytes; set-up: method as in PMID 1698933; conditions: infected H9 lymphocytes; cited from earlier work

SMILES | remaining activity at 100 µM [1] [%] | Inhibition of HIV-1 IN LEDGF-dependent activity (in words) [1] | IC50 [1] [µM] | IC50 ([2]; pure compounds) [µM] | also measured
O=c1cc(-c2ccc(O)cc2)oc2cc(O[C@@H]3O[C@H](CO)[C@@H](O)[C@H](O)[C@H]3O)cc(O)c12 [Apigenin 7-O-glucoside] | 100 | totally inactive | > 100 | > 100 | remaining activity at 100 µM [2]: 100%
O=c1cc(-c2ccc(O)cc2)oc2cc(O)cc(O)c12 [Apigenin] |  |  | 22 ± 3.5 | 16.1 ± 0.6 | 
C=C(C)[C@@H]1CC[C@]2(C(=O)O)CC[C@]3(C)[C@H](CC[C@@H]4[C@@]5(C)CC[C@H](O)C(C)(C)[C@@H]5CC[C@]43C)[C@@H]12 [Betulinic acid] |  | weakly active | 96.5 ± 3.5 | 2 ± 0.2 | Inhibition of HIV-1 RT-associated functions [3]: inhibited
O=c1oc2c(O)c(O)cc3c(=O)oc4c(O)c(O)cc1c4c23 [Ellagic acid] |  |  | 0.075 ± 0.0005 | 1.4 ± 0.11 | Inhibition of HIV RT (DNA polymerase activity) [4]: inability; Cytotoxicity (target cells): without cytotoxicity; Inhibition of HIV-1 protease expression (HIV-1 protease): ability to inhibit; Suppression of replication of X4-tropic HIV-1 (X4-tropic HIV-1): able to suppress
O=c1cc(-c2ccc(O[C@@H]3O[C@H](CO)[C@@H](O)[C@H](O)[C@H]3O)c(O)c2)oc2cc(O)cc(O)c12 [Luteolin 4′-O-glucoside] | 100 | totally inactive | > 100 | > 100 | remaining activity at 100 µM [2]: 100%
O=c1cc(-c2ccc(O)c(O)c2)oc2cc(O)cc(O)c12 [Luteolin] |  |  | 6.5 ± 0.5 | 3.7 ± 0.5 | Inhibition of HIV-1 infection [5]: capable of inhibiting
CC1(C)CC[C@]2(C(=O)O)CC[C@]3(C)C(=CC[C@@H]4[C@@]5(C)CC[C@H](O)C(C)(C)[C@@H]5CC[C@]43C)[C@@H]2C1 [Oleanolic acid] | 74 | inactive | > 100 | 6.7 ± 0.4 | Inhibition of protease expression (HIV-1 protease): inhibit
O=C1OC2C(O)OC3COC(=O)c4cc(O)c(O)c(O)c4-c4c(O)c(O)c5oc(=O)c6c(c(O)c(O)c7oc(=O)c4c5c76)-c4c(cc(O)c(O)c4O)C(=O)OC3C2OC(=O)c2cc(O)c(O)c(O)c2-c2c1cc(O)c(O)c2O (stereo not drawn) [Punicalagins, Punicalagin α + β] |  |  | 0.065 |  | Cytotoxicity (H9 lymphocytes): low degree of cytotoxicity; Inhibition of HIV-1 replication (HIV-1 in H9 lymphocytes): inhibited; HIV-1 RT-Associated RNase H IC50 ([2]; pure compounds): 0.12 ± 0.00 µM
CCOC(=O)C(=O)CC(=O)/C=C/c1cccn1Cc1ccccc1Cl [RDS1759, reference compound] |  |  |  |  | HIV-1 RT-Associated RNase H IC50 ([2]; reference compound of Table 1, footnote c: expressed in µM): 10.7 ± 0.9^c µM
C[C@H]1[C@H](C)CC[C@]2(C(=O)O)CC[C@]3(C)C(=CC[C@@H]4[C@@]5(C)CC[C@H](O)C(C)(C)[C@@H]5CC[C@]43C)[C@H]12 [Ursolic acid] | 68 | inactive | > 100 | 5.7 ± 0.1 | Inhibition of protease expression (HIV-1 protease): inhibit
